This note sets out measurements from US9073855B2, “BCL-2 selective apoptosis-inducing agents for the treatment of cancer and immune diseases” (AbbVie Inc., priority 2008, dated 2015).

The target of test [1] is GST-Bcl-2 (Homo sapiens, UniProt P10415). Put plainly: TR-FRET binding assay, GST-Bcl-2 with F-Bak peptide probe. Particulars: TR-FRET Binding Affinity, GST-Bcl-2, F-Bak peptide probe. As to the method: (§1) Tb-anti-GST antibody was purchased from Invitrogen (Catalog No. PV4216).
(§2) Representative compounds were serially diluted in dimethyl sulfoxide (DMSO) starting at 50 μM (2× starting concentration; 10% DMSO) and 10 μL were transferred into a 384-well plate.
(§3) The samples were then mixed on a shaker for 1 minute and incubated for an additional 3 hours at room temperature. For each assay, the probe/antibody and protein/probe/antibody were included on each assay plate as negative and positive controls, respectively. Fluorescence was measured on the ENVISION plate reader (Perkin Elmer) using a 340/35 nm excitation filter and 520/525 (F-Bak peptide) and 495/510 nm (Tb-labeled […] antibody) emission filters.
(§4) The inhibition constant (Ki) is the dissociation constant of an enzyme-inhibitor complex or a protein/small molecule complex, wherein the small molecule is inhibiting binding of one protein to another protein or peptide. […] Inhibition constants were determined using Wang's equation (Wang Z-X., An Exact Mathematical Expression For Describing Competitive Binding Of Two Different Ligands To A Protein Molecule. FEBS Lett. 1995, 360:111-4).

The target in test [2] is GST-Bcl-XL (Homo sapiens, UniProt Q07817). Put plainly: TR-FRET binding assay, GST-Bcl-XL with F-Bak peptide probe. Particulars: TR-FRET Binding Affinity, GST-Bcl-XL, F-Bak peptide probe. As to the method: as §1, §2, §3, §4
Sequence of GST-Bcl-XL (Q07817 whole entry): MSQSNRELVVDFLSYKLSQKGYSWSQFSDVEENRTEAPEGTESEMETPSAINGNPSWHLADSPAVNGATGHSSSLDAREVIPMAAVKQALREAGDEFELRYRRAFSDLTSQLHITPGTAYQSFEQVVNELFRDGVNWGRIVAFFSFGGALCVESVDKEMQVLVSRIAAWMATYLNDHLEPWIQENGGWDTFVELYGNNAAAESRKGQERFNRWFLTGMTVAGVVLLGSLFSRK

Sequence of GST-Bcl-2 (P10415 whole entry): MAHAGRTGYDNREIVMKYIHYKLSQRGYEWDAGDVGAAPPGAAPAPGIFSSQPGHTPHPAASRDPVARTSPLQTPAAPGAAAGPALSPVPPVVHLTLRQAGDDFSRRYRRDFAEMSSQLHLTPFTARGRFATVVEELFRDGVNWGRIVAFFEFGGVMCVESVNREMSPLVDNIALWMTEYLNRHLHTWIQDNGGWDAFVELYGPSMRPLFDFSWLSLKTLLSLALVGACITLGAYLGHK

A word on the Ki: it is a measure of affinity in units of concentration, obtained from inhibition or displacement. The low end stands for tighter binding, the high end for weaker binding. Take `O=C(NS(=O)(=O)c1ccc(NCC2CCOCC2)c([N+](=O)[O-])c1)c1ccc(N2CCN(Cc3ccccc3-c3ccc(Cl)cc3)CC2)cc1Oc1cccnc1` [Example 79, 4-{4-[(4′-chloro-1,1′-biphenyl-2-yl)methyl]piperazin-1-yl}-N-({3-nitro-4-[(tetrahydro-2H-pyran-4-ylmethyl)amino]phenyl}sulfonyl)-2-(pyridin-3-yloxy)benzamide]: the values for the Ki in test [1] and in test [2] were 2.05 nM and 97.2 nM, respectively.

On to `CN1CCN(CCNc2ccc(S(=O)(=O)NC(=O)c3ccc(N4CCN(Cc5ccccc5-c5ccc(Cl)cc5)CC4)cc3Oc3ccccc3)cc2[N+](=O)[O-])CC1` [Example 85, 4-{4-[(4′-chloro-1,1′-biphenyl-2-yl)methyl]piperazin-1-yl}-N-[(4-{[2-(4-methylpiperazin-1-yl)ethyl]amino}-3-nitrophenyl)sulfonyl]-2-phenoxybenzamide], for which the inhibition constant Ki stood at 0.236 nM in test [1] and 11.5 nM in test [2].

For the compound `CN(C)CCCN(C)c1ccc(S(=O)(=O)NC(=O)c2ccc(N3CCN(Cc4ccccc4-c4ccc(Cl)cc4)CC3)cc2Oc2ccccc2)cc1[N+](=O)[O-]` [Example 87, 4-{4-[(4′-chloro-1,1′-biphenyl-2-yl)methyl]piperazin-1-yl}-N-({4-[[3-(dimethylamino)propyl](methyl)amino]-3-nitrophenyl}sulfonyl)-2-phenoxybenzamide], the Ki is 0.762 nM in test [1] and 407 nM in test [2].

For the compound `CN(C)CCCNc1ccc(S(=O)(=O)NC(=O)c2ccc(N3CCN(Cc4ccccc4-c4ccc(Cl)cc4)CC3)cc2Oc2ccccc2)cc1C#N` [Example 90, 4-{4-[(4′-chloro-1,1′-biphenyl-2-yl)methyl]piperazin-1-yl}-N-[(3-cyano-4-{[3-(dimethylamino)propyl]amino}phenyl)sulfonyl]-2-phenoxybenzamide], the results for the Ki in test [1] and in test [2] were 2.13 nM and 284 nM, respectively.

For the compound `O=C(NS(=O)(=O)c1ccc(NCCCN2CCCC2)c([N+](=O)[O-])c1)c1ccc(N2CCN(Cc3ccccc3-c3ccc(Cl)cc3)CC2)cc1Oc1ccccc1` [Example 91, 4-{4-[(4′-chloro-1,1′-biphenyl-2-yl)methyl]piperazin-1-yl}-N-({3-nitro-4-[(3-pyrrolidin-1-ylpropyl)amino]phenyl}sulfonyl)-2-phenoxybenzamide], the Ki in test [1] turned out to be 0.193 nM; in test [2], 10.2 nM.

`CN(C)CCCNc1ccc(S(=O)(=O)NC(=O)c2ccc(N3CCN(Cc4ccccc4-c4ccc(Cl)cc4)CC3)cc2Oc2ccccc2)cc1C(F)(F)F` [Example 92, 4-{4-[(4′-chloro-1,1′-biphenyl-2-yl)methyl]piperazin-1-yl}-N-{[4-{[3-(dimethylamino)propyl]amino}-3-(trifluoromethyl)phenyl]sulfonyl}-2-phenoxybenzamide]: the figures for the Ki in test [1] and in test [2] were 4.38 nM and 349 nM, respectively.

As for `CC(C)N(C)CCCNc1ccc(S(=O)(=O)NC(=O)c2ccc(N3CCN(Cc4ccccc4-c4ccc(Cl)cc4)CC3)cc2Oc2ccccc2)cc1[N+](=O)[O-]` [Example 93, 4-{4-[(4′-chloro-1,1′-biphenyl-2-yl)methyl]piperazin-1-yl}-N-{[4-({3-[isopropyl(methyl)amino]propyl}amino)-3-nitrophenyl]sulfonyl}-2-phenoxybenzamide], the values for the Ki in test [1] and in test [2] were 0.231 nM and 13.9 nM, respectively.

`CN1CCN(CCNc2ccc(S(=O)(=O)NC(=O)c3ccc(N4CCN(CC5=C(c6ccc(Cl)cc6)CC(C)(C)CC5)CC4)cc3Oc3ccc4[nH]ccc4c3)cc2[N+](=O)[O-])CC1` [Example 95, 4-(4-{[2-(4-chlorophenyl)-4,4-dimethylcyclohex-1-en-1-yl]methyl}piperazin-1-yl)-2-(1H-indol-5-yloxy)-N-[(4-{[2-(4-methylpiperazin-1-yl)ethyl]amino}-3-nitrophenyl)sulfonyl]benzamide]: the Ki in test [1] turned out to be 0.06 nM; in test [2] it was 15.7 nM.

With `CN1CCN(CCNc2ccc(S(=O)(=O)NC(=O)c3ccc(N4CCN(CC5=C(c6ccc(Cl)cc6)CC(C)(C)CC5)CC4)cc3Oc3cccc4[nH]ccc34)cc2[N+](=O)[O-])CC1` [Example 101, 4-(4-{[2-(4-chlorophenyl)-4,4-dimethylcyclohex-1-en-1-yl]methyl}piperazin-1-yl)-2-(1H-indol-4-yloxy)-N-[(4-{[2-(4-methylpiperazin-1-yl)ethyl]amino}-3-nitrophenyl)sulfonyl]benzamide], the Ki in test [1] came to 0.092 nM; in test [2], 11.2 nM.

On to `CN1CCN(c2ccc(S(=O)(=O)NC(=O)c3ccc(N4CCN(CC5=C(c6ccc(Cl)cc6)CC(C)(C)CC5)CC4)cc3Oc3ccc4[nH]ccc4c3)cc2[N+](=O)[O-])CC1` [Example 107, 4-(4-{[2-(4-chlorophenyl)-4,4-dimethylcyclohex-1-en-1-yl]methyl}piperazin-1-yl)-2-(1H-indol-5-yloxy)-N-{[4-(4-methylpiperazin-1-yl)-3-nitrophenyl]sulfonyl}benzamide], for which the Ki in test [1] was 2.09 nM; in test [2] it was 130 nM.

As to `CC1(C)CCC(CN2CCN(c3ccc(C(=O)NS(=O)(=O)c4ccc(NC5CCN(CC(F)(F)F)CC5)c([N+](=O)[O-])c4)c(Oc4cccc5[nH]ccc45)c3)CC2)=C(c2ccc(Cl)cc2)C1` [Example 108, 4-(4-{[2-(4-chlorophenyl)-4,4-dimethylcyclohex-1-en-1-yl]methyl}piperazin-1-yl)-2-(1H-indol-4-yloxy)-N-[(3-nitro-4-{[1-(2,2,2-trifluoroethyl)piperidin-4-yl]amino}phenyl)sulfonyl]benzamide], the Ki is 2.34 nM in test [1] and 59.6 nM in test [2].

With `O=C(NS(=O)(=O)c1ccc(NCC2CCOCC2)c([N+](=O)[O-])c1)c1ccc(N2CCN(Cc3cc(OCCCN4CCCCC4)ccc3-c3ccc(Cl)cc3)CC2)cc1Oc1ccccc1` [Example 114, 4-(4-{[4′-chloro-4-(3-piperidin-1-ylpropoxy)-1,1′-biphenyl-2-yl]methyl}piperazin-1-yl)-N-({3-nitro-4-[(tetrahydro-2H-pyran-4-ylmethyl)amino]phenyl}sulfonyl)-2-phenoxybenzamide], the figures for the inhibitory constant (Ki) in test [1] and in test [2] were 0.096 nM and 14.3 nM, respectively.

On to `O=C(NS(=O)(=O)c1ccc(NCC2CCOCC2)c([N+](=O)[O-])c1)c1ccc(N2CCN(Cc3cc(OCCN4CCOCC4)ccc3-c3ccc(Cl)cc3)CC2)cc1Oc1ccccc1` [Example 115, 4-(4-{[4′-chloro-4-(2-morpholin-4-ylethoxy)-1,1′-biphenyl-2-yl]methyl}piperazin-1-yl)-N-({3-nitro-4-[(tetrahydro-2H-pyran-4-ylmethyl)amino]phenyl}sulfonyl)-2-phenoxybenzamide], for which the Ki in test [1] came out at 0.176 nM; in test [2] it was 27.5 nM.

As for `CN(C)CCCOc1ccc(-c2ccc(Cl)cc2)c(CN2CCN(c3ccc(C(=O)NS(=O)(=O)c4ccc(NCC5CCOCC5)c([N+](=O)[O-])c4)c(Oc4ccccc4)c3)CC2)c1` [Example 116, 4-[4-({4′-chloro-4-[3-(dimethylamino)propoxy]-1,1′-biphenyl-2-yl}methyl)piperazin-1-yl]-N-({3-nitro-4-[(tetrahydro-2H-pyran-4-ylmethyl)amino]phenyl}sulfonyl)-2-phenoxybenzamide], the Ki in test [1] stood at 0.036 nM; in test [2] it was 8.3 nM.

Take `O=C(NS(=O)(=O)c1ccc(NCC2CCOCC2)c(S(=O)(=O)C(F)(F)F)c1)c1ccc(N2CCN(Cc3cc(OCCN4CCOCC4)ccc3-c3ccc(Cl)cc3)CC2)cc1Oc1ccccc1` [Example 117, 4-(4-{[4′-chloro-4-(2-morpholin-4-ylethoxy)-1,1′-biphenyl-2-yl]methyl}piperazin-1-yl)-2-phenoxy-N-({4-[(tetrahydro-2H-pyran-4-ylmethyl)amino]-3-[(trifluoromethyl)sulfonyl]phenyl}sulfonyl)benzamide]: the Ki in test [1] is 2.3 nM; in test [2], > 660 nM.

On to `O=C(NS(=O)(=O)c1ccc(NCC2CCOCC2)c(S(=O)(=O)C(F)(F)F)c1)c1ccc(N2CCN(Cc3cc(OCCCN4CCCCC4)ccc3-c3ccc(Cl)cc3)CC2)cc1Oc1ccccc1` [Example 118, 4-(4-{[4′-chloro-4-(3-piperidin-1-ylpropoxy)-1,1′-biphenyl-2-yl]methyl}piperazin-1-yl)-2-phenoxy-N-({4-[(tetrahydro-2H-pyran-4-ylmethyl)amino]-3-[(trifluoromethyl)sulfonyl]phenyl}sulfonyl)benzamide], for which the results for the Ki in test [1] and in test [2] were 0.769 nM and > 660 nM, respectively.

In the case of `CN(C)CCCOc1ccc(-c2ccc(Cl)cc2)c(CN2CCN(c3ccc(C(=O)NS(=O)(=O)c4ccc(NCC5CCOCC5)c(S(=O)(=O)C(F)(F)F)c4)c(Oc4ccccc4)c3)CC2)c1` [Example 119, 4-[4-({4′-chloro-4-[3-(dimethylamino)propoxy]-1,1′-biphenyl-2-yl}methyl)piperazin-1-yl]-2-phenoxy-N-({4-[(tetrahydro-2H-pyran-4-ylmethyl)amino]-3-[(trifluoromethyl)sulfonyl]phenyl}sulfonyl)benzamide], the results for the Ki in test [1] and in test [2] were 0.622 nM and 230 nM, respectively.

Take `CN(C)CCOc1cccc(-c2ccc(Cl)cc2)c1CN1CCN(c2ccc(C(=O)NS(=O)(=O)c3ccc(NCC4CCOCC4)c(S(=O)(=O)C(F)(F)F)c3)c(Oc3ccccc3)c2)CC1` [Example 124, 4-[4-({4′-chloro-3-[2-(dimethylamino)ethoxy]-1,1′-biphenyl-2-yl}methyl)piperazin-1-yl]-2-phenoxy-N-({4-[(tetrahydro-2H-pyran-4-ylmethyl)amino]-3-[(trifluoromethyl)sulfonyl]phenyl}sulfonyl)benzamide]: the Ki was determined as 0.335 nM in test [1] and 73.7 nM in test [2].
